{"source": "patent US12251383B2", "about": "“Methods and compositions for KRAS inhibitors” (The Board of Regents of the University of Texas System, priority 2019, dated 2025)", "key": {"[1]": {"target": "Rap1B (Homo sapiens, UniProt P61224)", "sequence (P61224 whole entry, species assumed, the tested form may be a part)": "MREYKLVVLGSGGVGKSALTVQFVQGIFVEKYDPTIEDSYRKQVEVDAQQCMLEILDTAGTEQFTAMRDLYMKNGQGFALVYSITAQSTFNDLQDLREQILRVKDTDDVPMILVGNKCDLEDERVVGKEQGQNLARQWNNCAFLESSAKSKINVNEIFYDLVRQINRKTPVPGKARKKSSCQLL", "test": "MST binding, control Rap1B", "conditions": "control small GTPase", "excerpt": "FIGS. 1A-1D show representative data for the predicted binding mode and measured affinity of disclosed compound 11 to KRAS. (FIG. 1A) Structure of the catalytic domain of KRAS used for the virtual screening. Lobe1 (residues 1-86) and lobe2 (residues 87-166) are highlighted in different colors, as well as switches 1 (residues 30-40) and 2 (residues 60-75). The location of the target allosteric pocket p1 is indicated. (FIG. 1B) Chemical structure of compound 11. (FIG. 1C) Predicted binding pose of compound 11, with the key residues that make polar or vdW contacts with the ligand labeled. (FIG. 1D) Microscale thermophoresis (MST) experiments indicating direct binding of compound 11 to KRAS, along with dissociation constants (KD) derived from the curves. Changes in fluorescence upon titration of […] KRAS with increasing concentration of compound are shown: KRAS^WT (red), KRAS^G12C (green), KRAS^G12D (purple) and KRAS^Q61M (blue), each bound to the non-hydrolyzable GTP analogue, guanylyl imidodiphosphate (GNP). The same experiments indicated no binding to GDP-bound KRAS^G12D and KRAS^WT as well as Rap1B, which was used as control. […]"}, "[2]": {"target": "T1, KRAS^G12D-cRaf interaction (Homo sapiens, UniProt P01116, G12D)", "T1 construct": "expressed in transfected cells; host or cells: BHK (baby hamster kidney) cells, transient expression", "test": "FLIM-FRET of GFP-KRAS G12D and RFP-cRaf in BHK cells", "type": "cell-based, hamster", "conditions": "1 μM", "excerpt": "[formula] where P1 is polarization of free KRAS, P2 is polarization of Raf-bound KRAS, c is the total concentration of KRAS, and x the total concentration of Raf^RBD. (FIG. 2B) Amount of GFP-KRAS^G12D pulled down by GST-Raf^RBD after treatment of cell lysates with compound at the concentrations indicated (representative Westerns are shown at the top). The RBD sequence length was 1-149 and 51-131 in the fluorescence polarization and pull-down assays, respectively. (FIG. 2C) GFP fluorescence lifetime from FLIM-FRET using cells expressing GFP-KRAS^G12D alone or with RFP-Raf, with or without treatment by 1 μM compound 11. Data are shown as mean±S.E; significance estimated by one-way analysis of variance.\nFluorescence lifetime imaging (FLIM)-fluorescence resonance energy transfer (FRET). FLIM-FRET experiments were carried out using a lifetime fluorescence imaging attachment (Lambert Instruments, The Netherlands) on an inverted microscope (43). BHK cells transiently expressing mGFP-tagged KRAS^G12D (donor), alone or with mRFP-tagged cRaf^WT (acceptor) (using 1:5 ratio), were prepared as indicated in each experiment. The samples were excited using a sinusoidally modulated 3 W 470 nm light-emitting diode at 40 MHz under epi-illumination. Fluorescein was used as a lifetime reference standard. […] The phase and modulation were determined from 12 phase settings using the manufacturer's software. […]"}}, "data": [{"smiles": "Cc1nn2c(N3CCN(CCO)CC3)cc(-c3ccccc3)nc2c1-c1ccccc1", "note": "[Compound 11, 2-[4-(8-methyl-3,9-diphenyl-2,6,7-triazabicyclo[4.3.0]nona-2,4,7,9-tetraen-5-yl)piperazin-1-yl]ethanol]", "values": [{"measurement": "binding (in words)", "setting": "[1]", "value": "no binding"}, {"measurement": "KRAS^G12D-cRaf interaction (quenching of GFP fluorescence lifetime)", "setting": "[2]", "value": "significantly reduced"}]}]}
